How the values were obtained:
Assay in all cases: cells
Settings in all cases: Homo sapiens
DEL = assay type: functional, cell-based;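 also: growth inhibition of the human DEL cell line, read out with a cell viability assay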
Description: SANGER: Inhibition of human DEL cell growth in a cell viability assay.

HH = assay type: functional, cell-based
Description: SANGER: Inhibition of human HH cell growth in a cell viability assay.

TE-9 = assay type: functional, cell-based;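 also: cell growth inhibition, measured with a cell viability readout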
Description: SANGER: Inhibition of human TE-9 cell growth in a cell viability assay.

NCI-H1770 = assay type: functional, cell-based;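 also: growth inhibition of NCI-H1770 cells determined with a viability readout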
Description: SANGER: Inhibition of human NCI-H1770 cell growth in a cell viability assay.

OCUB-M = assay type: functional, cell-based;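 also: growth inhibition of the cancer cell line, read out through a cell viability assay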
Description: SANGER: Inhibition of human OCUB-M cell growth in a cell viability assay.

TK-10 = assay type: functional, cell-based;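 also: growth inhibition of TK-10 cells, read out in a cell viability assay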
Description: SANGER: Inhibition of human TK10 cell growth in a cell viability assay.

KLE = assay type: functional, cell-based;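 also: growth inhibition of human KLE cells, read out with a cell viability assay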
Description: SANGER: Inhibition of human KLE cell growth in a cell viability assay.

KP-N-YS = assay type: functional, cell-based;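 also: cell viability assay measuring inhibition of cell line growth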
Description: SANGER: Inhibition of human KP-N-YS cell growth in a cell viability assay.

NCI-H1092 = assay type: functional, cell-based;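 also: cell growth inhibition measured with a cell viability assay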
Description: SANGER: Inhibition of human NCI-H1092 cell growth in a cell viability assay.

KINGS-1 = assay type: functional, cell-based;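 also: cell viability assay measuring suppression of KINGS-1 cell growth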
Description: SANGER: Inhibition of human KINGS-1 cell growth in a cell viability assay.

TE-1 = assay type: functional, cell-based
Description: SANGER: Inhibition of human TE-1 cell growth in a cell viability assay.

TE-11 = assay type: functional, cell-based;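 also: growth inhibition of human TE-11 cells, read out by a cell viability assay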
Description: SANGER: Inhibition of human TE-11 cell growth in a cell viability assay.

COLO-684 = assay type: functional, cell-based
Description: SANGER: Inhibition of human COLO-684 cell growth in a cell viability assay.

UACC-257 = assay type: functional, cell-based
Description: SANGER: Inhibition of human UACC-257 cell growth in a cell viability assay.

SW982 = assay type: functional, cell-based;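 also: growth inhibition of SW982 cells, read out with a cell viability assay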
Description: SANGER: Inhibition of human SW982 cell growth in a cell viability assay.

SNB-75 = assay type: functional, cell-based;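 also: cell viability assay measuring growth inhibition of human SNB-75 cells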
Description: SANGER: Inhibition of human SNB75 cell growth in a cell viability assay.

DMS-79 = assay type: functional, cell-based;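 also: growth inhibition measured with a cell viability assay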
Description: SANGER: Inhibition of human DMS-79 cell growth in a cell viability assay.

GAK = assay type: functional, cell-based;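 also: cell growth inhibition read out by a cell viability assay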
Description: SANGER: Inhibition of human GAK cell growth in a cell viability assay.

D283 Med = assay type: functional, cell-based
Description: SANGER: Inhibition of human D-283MED cell growth in a cell viability assay.

NTERA-2-cl-D1 = assay type: functional, cell-based;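 also: inhibition of cell growth, measured with a cell viability assay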
Description: SANGER: Inhibition of human NTERA-S-cl-D1 cell growth in a cell viability assay.

MFM-223 = assay type: functional, cell-based
Description: SANGER: Inhibition of human MFM-223 cell growth in a cell viability assay.

MPP-89 = assay type: functional, cell-based;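 also: growth inhibition of human MPP-89 cells, read out with a cell viability assay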
Description: SANGER: Inhibition of human MPP-89 cell growth in a cell viability assay.

LOX IMVI = assay type: functional, cell-based
Description: SANGER: Inhibition of human LOXIMVI cell growth in a cell viability assay.

HEL = assay type: functional, cell-based;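 also: growth inhibition of HEL cells, read out with a cell viability assay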
Description: SANGER: Inhibition of human HEL cell growth in a cell viability assay.

CGTH-W-1 = assay type: functional, cell-based;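 also: growth inhibition of human CGTH-W-1 cells measured by cell viability assay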
Description: SANGER: Inhibition of human CGTH-W-1 cell growth in a cell viability assay.

NB5 = assay type: functional, cell-based;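 also: growth inhibition of NB5 cells, read out as cell viability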
Description: SANGER: Inhibition of human NB5 cell growth in a cell viability assay.

NH-12 = assay type: functional, cell-based;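 also: growth inhibition of NH-12 cells, read out with a cell viability assay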
Description: SANGER: Inhibition of human NH-12 cell growth in a cell viability assay.

SNU1 = assay type: functional, cell-based;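 also: growth inhibition of human NCI-SNU-1 cells, measured with a cell viability assay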
Description: SANGER: Inhibition of human NCI-SNU-1 cell growth in a cell viability assay.

RH-1 = assay type: functional, cell-based;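 also: growth inhibition of human RH-1 cells, read out with a cell viability assay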
Description: SANGER: Inhibition of human RH-1 cell growth in a cell viability assay.

CAS-1 = assay type: functional, cell-based;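 also: growth inhibition of CAS-1 cells, measured with a cell viability assay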
Description: SANGER: Inhibition of human CAS-1 cell growth in a cell viability assay.

KURAMOCHI = assay type: functional, cell-based;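 also: growth inhibition of KURAMOCHI cells, read out with a cell viability assay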
Description: SANGER: Inhibition of human KURAMOCHI cell growth in a cell viability assay.

COLO-824 = assay type: functional, cell-based
Description: SANGER: Inhibition of human COLO-824 cell growth in a cell viability assay.

ALL-PO = assay type: functional, cell-based;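 also: growth inhibition of ALL-PO cells, read out by a cell viability assay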
Description: SANGER: Inhibition of human ALL-PO cell growth in a cell viability assay.

MSTO-211H = assay type: functional, cell-based
Description: SANGER: Inhibition of human MSTO-211H cell growth in a cell viability assay.

Lu-65 = assay type: functional, cell-based;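 also: growth inhibition of Lu-65 cancer cells, read out by a cell viability assay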
Description: SANGER: Inhibition of human LU-65 cell growth in a cell viability assay.

LU-139 = assay type: functional, cell-based
Description: SANGER: Inhibition of human LU-139 cell growth in a cell viability assay.

MS-1 = assay type: functional, cell-based;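 also: growth inhibition of MS-1 cells, read out by cell viability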
Description: SANGER: Inhibition of human MS-1 cell growth in a cell viability assay.

NCI-H510A = assay type: functional, cell-based;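 also: growth inhibition of NCI-H510A cells, read out with a cell viability assay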
Description: SANGER: Inhibition of human NCI-H510A cell growth in a cell viability assay.

no-11 = assay type: functional, cell-based;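 also: growth inhibition of human NO-11 cells, read out with a cell viability assay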
Description: SANGER: Inhibition of human no-11 cell growth in a cell viability assay.

AM-38 = assay type: functional, cell-based;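 also: growth inhibition of AM-38 cells of human origin, read out by a cell viability assay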
Description: SANGER: Inhibition of human AM-38 cell growth in a cell viability assay.

Mo = assay type: functional, cell-based
Description: SANGER: Inhibition of human Mo-T cell growth in a cell viability assay.

KNS-42 = assay type: functional, cell-based;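 also: growth inhibition of KNS-42 cells, read out with a cell viability assay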
Description: SANGER: Inhibition of human KNS-42 cell growth in a cell viability assay.

NOS-1 = assay type: functional, cell-based;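 also: growth inhibition of the human NOS-1 cell line, read out with a cell viability assay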
Description: SANGER: Inhibition of human NOS-1 cell growth in a cell viability assay.

CP66-MEL = assay type: functional, cell-based;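 also: growth inhibition of CP66-MEL cells determined in a cell viability assay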
Description: SANGER: Inhibition of human CP66-MEL cell growth in a cell viability assay.

SW 954 = assay type: functional, cell-based;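 also: growth inhibition of SW954 human cancer cells, read out as cell viability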
Description: SANGER: Inhibition of human SW954 cell growth in a cell viability assay.

KU812 cell line = assay type: functional, cell-based;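 also: growth inhibition of KU812 cells, read out with a cell viability assay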
Description: SANGER: Inhibition of human KU812 cell growth in a cell viability assay.

U-87 MG = assay type: functional, cell-based, U-87MG ATCC;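 also: growth inhibition of the cells measured with a viability assay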
Description: SANGER: Inhibition of human U-87-MG cell growth in a cell viability assay.

NB10 = assay type: functional, cell-based;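 also: growth inhibition of NB10 cells, read out by a cell viability assay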
Description: SANGER: Inhibition of human NB10 cell growth in a cell viability assay.

GI-ME-N = assay type: functional, cell-based;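 also: growth inhibition of human GI-ME-N cells, read out with a cell viability assay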
Description: SANGER: Inhibition of human GI-ME-N cell growth in a cell viability assay.

SCC-15 = assay type: functional, cell-based;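 also: growth inhibition of SCC-15 cells, read out with a cell viability assay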
Description: SANGER: Inhibition of human SCC-15 cell growth in a cell viability assay.

DB = assay type: functional, cell-based
Description: SANGER: Inhibition of human DB cell growth in a cell viability assay.

SW684 = assay type: functional, cell-based;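 also: growth inhibition of human SW684 cells, measured by a cell viability assay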
Description: SANGER: Inhibition of human SW684 cell growth in a cell viability assay.

CTV-1 = assay type: functional, cell-based;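 also: growth inhibition of the cell line, read out with a cell viability assay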
Description: SANGER: Inhibition of human CTV-1 cell growth in a cell viability assay.

NCI-H23 = assay type: functional, cell-based;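 also: cell viability assay measuring growth inhibition of NCI-H23 cells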
Description: SANGER: Inhibition of human NCI-H23 cell growth in a cell viability assay.

TE-12 = assay type: functional, cell-based;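 also: growth inhibition of TE-12 cells, read out by a cell viability assay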
Description: SANGER: Inhibition of human TE-12 cell growth in a cell viability assay.

CW-2 = assay type: functional, cell-based;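 also: growth inhibition of CW-2 cells, read out by a cell viability assay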
Description: SANGER: Inhibition of human CW-2 cell growth in a cell viability assay.

NEC8 = assay type: functional, cell-based;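 also: growth inhibition of human NEC8 cells, read out by a cell viability assay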
Description: SANGER: Inhibition of human NEC8 cell growth in a cell viability assay.

MN-60 = assay type: functional, cell-based;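 also: growth inhibition of the MN-60 cell line, determined with a cell viability assay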
Description: SANGER: Inhibition of human MN-60 cell growth in a cell viability assay.

NCI-H1648 = assay type: functional, cell-based;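 also: cell viability assay measuring inhibition of NCI-H1648 cell growth, from the Sanger screening data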
Description: SANGER: Inhibition of human NCI-H1648 cell growth in a cell viability assay.

MZ1-PC = assay type: functional, cell-based;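 also: cell viability assay measuring growth inhibition of human MZ1-PC cells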
Description: SANGER: Inhibition of human MZ1-PC cell growth in a cell viability assay.

MEG-01 = assay type: functional, cell-based;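 also: growth inhibition of MEG-01 cells, read out by a cell viability assay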
Description: SANGER: Inhibition of human MEG-01 cell growth in a cell viability assay.

NCI-H226 = assay type: functional, cell-based;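 also: cell viability read-out used to gauge growth inhibition of the cells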
Description: SANGER: Inhibition of human NCI-H226 cell growth in a cell viability assay.

U-266 = assay type: functional, cell-based
Description: SANGER: Inhibition of human U-266 cell growth in a cell viability assay.

LC-2-ad = assay type: functional, cell-based;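 also: growth inhibition of human LC-2-ad cells, read out with a cell viability assay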
Description: SANGER: Inhibition of human LC-2-ad cell growth in a cell viability assay.

KALS-1 = assay type: functional, cell-based
Description: SANGER: Inhibition of human KALS-1 cell growth in a cell viability assay.

8-MG-BA = assay type: functional, cell-based
Description: SANGER: Inhibition of human 8-MG-BA cell growth in a cell viability assay.

SMILES: O=c1[nH]c2ccccc2n1C1CCN(Cc2ccc(-c3nc4cc5[nH]cnc5cc4nc3-c3ccccc3)cc2)CC1
- IC50 (DEL): > 2560 nM
- IC50 (HH): > 2560 nM
- IC50 (TE-9): > 2560 nM
- IC50 (NCI-H1770): > 2560 nM
- IC50 (OCUB-M): > 2560 nM
- IC50 (TK-10): > 2560 nM
- IC50 (KLE): > 2560 nM
- IC50 (KP-N-YS): > 2560 nM
- IC50 (NCI-H1092): > 2560 nM
- IC50 (KINGS-1): > 2560 nM
- IC50 (TE-1): > 2560 nM
- IC50 (TE-11): > 2560 nM
- IC50 (COLO-684): > 2560 nM
- IC50 (UACC-257): > 2560 nM
- IC50 (SW982): > 2560 nM
- IC50 (SNB-75): > 2560 nM
- IC50 (DMS-79): > 2560 nM
- IC50 (GAK): > 2560 nM
- IC50 (D283 Med): > 2560 nM
- IC50 (NTERA-2-cl-D1): > 2560 nM
- IC50 (MFM-223): > 2560 nM
- IC50 (MPP-89): > 2560 nM
- IC50 (LOX IMVI): > 2560 nM
- IC50 (HEL): > 2560 nM
- IC50 (CGTH-W-1): > 2560 nM
- IC50 (NB5): > 2560 nM
- IC50 (NH-12): 609 nM
- IC50 (SNU1): > 2560 nM
- IC50 (RH-1): > 2560 nM
- IC50 (CAS-1): > 2560 nM
- IC50 (KURAMOCHI): 2310 nM
- IC50 (COLO-824): > 2560 nM
- IC50 (ALL-PO): > 2560 nM
- IC50 (MSTO-211H): > 2560 nM
- IC50 (Lu-65): > 2560 nM
- IC50 (LU-139): > 2560 nM
- IC50 (MS-1): > 2560 nM
- IC50 (NCI-H510A): > 2560 nM
- IC50 (no-11): > 2560 nM
- IC50 (AM-38): > 2560 nM
- IC50 (Mo): > 2560 nM
- IC50 (KNS-42): > 2560 nM
- IC50 (NOS-1): 1370 nM
- IC50 (CP66-MEL): > 2560 nM
- IC50 (SW 954): > 2560 nM
- IC50 (KU812 cell line): 1730 nM
- IC50 (U-87 MG): > 2560 nM
- IC50 (NB10): > 2560 nM
- IC50 (GI-ME-N): > 2560 nM
- IC50 (SCC-15): > 2560 nM
- IC50 (DB): > 2560 nM
- IC50 (SW684): > 2560 nM
- IC50 (CTV-1): > 2560 nM
- IC50 (NCI-H23): > 2560 nM
- IC50 (TE-12): > 2560 nM
- IC50 (CW-2): > 2560 nM
- IC50 (NEC8): > 2560 nM
- IC50 (MN-60): > 2560 nM
- IC50 (NCI-H1648): > 2560 nM
- IC50 (MZ1-PC): > 2560 nM
- IC50 (MEG-01): > 2560 nM
- IC50 (NCI-H226): > 2560 nM
- IC50 (U-266): > 2560 nM
- IC50 (LC-2-ad): > 2560 nM
- IC50 (KALS-1): > 2560 nM
- IC50 (8-MG-BA): > 2560 nM

SMILES: Fc1cc(-c2cc[nH]/c(=N/c3ccc(-n4cnc(N5CCOCC5)n4)cc3)n2)cc(N2CCOCC2)c1
- IC50 (DEL): 289 nM
- IC50 (HH): > 5120 nM
- IC50 (TE-9): 69.2 nM
- IC50 (NCI-H1770): 805 nM
- IC50 (OCUB-M): 3030 nM
- IC50 (TK-10): 1190 nM
- IC50 (KLE): 1810 nM
- IC50 (KP-N-YS): 695 nM
- IC50 (NCI-H1092): 1760 nM
- IC50 (KINGS-1): > 5120 nM
- IC50 (TE-1): > 5120 nM
- IC50 (TE-11): 2390 nM
- IC50 (COLO-684): 543 nM
- IC50 (UACC-257): 1240 nM
- IC50 (SW982): 121 nM
- IC50 (SNB-75): 291 nM
- IC50 (DMS-79): 4280 nM
- IC50 (GAK): 790 nM
- IC50 (D283 Med): 2560 nM
- IC50 (NTERA-2-cl-D1): 316 nM
- IC50 (MFM-223): > 5120 nM
- IC50 (MPP-89): 3820 nM
- IC50 (LOX IMVI): 477 nM
- IC50 (HEL): 548 nM
- IC50 (CGTH-W-1): 82.5 nM
- IC50 (NB5): > 5120 nM
- IC50 (NH-12): 465 nM
- IC50 (SNU1): 458 nM
- IC50 (RH-1): 919 nM
- IC50 (CAS-1): 2230 nM
- IC50 (KURAMOCHI): 598 nM
- IC50 (COLO-824): 637 nM
- IC50 (ALL-PO): 671 nM
- IC50 (MSTO-211H): > 5120 nM
- IC50 (Lu-65): 1660 nM
- IC50 (LU-139): 1970 nM
- IC50 (MS-1): 2630 nM
- IC50 (NCI-H510A): > 5120 nM
- IC50 (no-11): 1350 nM
- IC50 (AM-38): 1110 nM
- IC50 (Mo): 1650 nM
- IC50 (KNS-42): 1090 nM
- IC50 (NOS-1): 307 nM
- IC50 (CP66-MEL): 820 nM
- IC50 (SW 954): 473 nM
- IC50 (KU812 cell line): 338 nM
- IC50 (U-87 MG): 2730 nM
- IC50 (NB10): 1300 nM
- IC50 (GI-ME-N): 1440 nM
- IC50 (SCC-15): 803 nM
- IC50 (DB): 611 nM
- IC50 (SW684): 3040 nM
- IC50 (CTV-1): 405 nM
- IC50 (NCI-H23): > 5120 nM
- IC50 (TE-12): 1210 nM
- IC50 (CW-2): > 5120 nM
- IC50 (NEC8): 1010 nM
- IC50 (MN-60): 894 nM
- IC50 (NCI-H1648): 473 nM
- IC50 (MZ1-PC): 195 nM
- IC50 (MEG-01): 684 nM
- IC50 (NCI-H226): 1430 nM
- IC50 (U-266): 882 nM
- IC50 (LC-2-ad): 350 nM
- IC50 (KALS-1): 451 nM
- IC50 (8-MG-BA): 116 nM
